# Measurements as given in patent US10669269B2, “Substituted N-(1H-indazol-4-yl)imidazo[1,2-a]pyridine-3-carboxamide compounds as type III receptor tyrosine kinase inhibitors” (ARRAY BIOPHARMA INC., priority 2010, dated 2020).
# Where a name gives a salt, the structure may show the parent alone.
# Columns and labels:
# cFMS = target: T1, cFMS (Homo sapiens, UniProt P07333); experiment: cFMS Cell-Based Assay (Example C); conditions: averaged IC50; phospho-cFMS in THP-1 cells stimulated with 250 ng/mL recombinant human MCSF; read-out: cFMS Cell ELISA IC50
# T1 construct: THP-1 cells (human acute monocytic leukemia cell line) were serum-starved for 4 hours; endogenous in cells; host or cells: THP-1 cells (human acute monocytic leukemia cell line)
# T1 sequence (P07333 20-972): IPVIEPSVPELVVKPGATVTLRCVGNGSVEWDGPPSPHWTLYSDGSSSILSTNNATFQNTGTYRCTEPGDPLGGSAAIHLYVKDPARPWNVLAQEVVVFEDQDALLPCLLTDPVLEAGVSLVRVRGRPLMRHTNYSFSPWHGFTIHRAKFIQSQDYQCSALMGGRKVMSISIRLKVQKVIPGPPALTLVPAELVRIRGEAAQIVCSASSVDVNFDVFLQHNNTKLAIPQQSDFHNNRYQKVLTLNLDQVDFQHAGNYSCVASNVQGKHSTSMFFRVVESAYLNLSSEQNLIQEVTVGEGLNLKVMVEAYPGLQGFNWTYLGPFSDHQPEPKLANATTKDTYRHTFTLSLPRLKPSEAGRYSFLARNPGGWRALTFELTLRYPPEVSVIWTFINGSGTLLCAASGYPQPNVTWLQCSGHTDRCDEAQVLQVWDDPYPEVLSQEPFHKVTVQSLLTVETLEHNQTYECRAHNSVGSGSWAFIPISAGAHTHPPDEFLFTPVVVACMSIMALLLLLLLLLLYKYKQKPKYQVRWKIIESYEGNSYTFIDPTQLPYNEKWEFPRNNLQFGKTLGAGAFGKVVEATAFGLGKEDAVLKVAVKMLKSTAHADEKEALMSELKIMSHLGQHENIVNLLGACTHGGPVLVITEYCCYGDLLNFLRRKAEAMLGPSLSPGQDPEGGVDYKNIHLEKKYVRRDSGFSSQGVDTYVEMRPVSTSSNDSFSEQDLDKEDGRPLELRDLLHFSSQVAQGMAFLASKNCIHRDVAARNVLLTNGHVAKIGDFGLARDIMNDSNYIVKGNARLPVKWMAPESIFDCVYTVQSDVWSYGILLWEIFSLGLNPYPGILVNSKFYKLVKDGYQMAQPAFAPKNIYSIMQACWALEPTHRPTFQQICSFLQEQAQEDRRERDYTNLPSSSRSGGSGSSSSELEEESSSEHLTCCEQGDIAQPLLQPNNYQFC
# Summary of the method: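 Phosphotyrosine on cFMS, captured from lysates and quantified by ELISA, reads receptor activation after 1 min of 250 ng/mL human MCSF. Beforehand, THP-1 cells were serum-starved for 4 h and exposed to compound for 1 h (9 points, 3-fold, typically up to 5,000 nM). IC50 from a 4-parameter logistic fit as 50 percent of control.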
# PDGFR beta = target: T2, PDGFR beta (Homo sapiens, UniProt P09619); experiment: Phospho PDGFR LICOR Cell Assay (Example B); format: cell-based; conditions: averaged IC50; PDGFR beta phosphorylation in HS27 human fibroblast cell line, PDGF-BB stimulation 10 minutes, normalized to total ERK
# T2 construct: endogenous in cells; host or cells: HS27 human fibroblast cell line
# T2 sequence (P09619 33-1106): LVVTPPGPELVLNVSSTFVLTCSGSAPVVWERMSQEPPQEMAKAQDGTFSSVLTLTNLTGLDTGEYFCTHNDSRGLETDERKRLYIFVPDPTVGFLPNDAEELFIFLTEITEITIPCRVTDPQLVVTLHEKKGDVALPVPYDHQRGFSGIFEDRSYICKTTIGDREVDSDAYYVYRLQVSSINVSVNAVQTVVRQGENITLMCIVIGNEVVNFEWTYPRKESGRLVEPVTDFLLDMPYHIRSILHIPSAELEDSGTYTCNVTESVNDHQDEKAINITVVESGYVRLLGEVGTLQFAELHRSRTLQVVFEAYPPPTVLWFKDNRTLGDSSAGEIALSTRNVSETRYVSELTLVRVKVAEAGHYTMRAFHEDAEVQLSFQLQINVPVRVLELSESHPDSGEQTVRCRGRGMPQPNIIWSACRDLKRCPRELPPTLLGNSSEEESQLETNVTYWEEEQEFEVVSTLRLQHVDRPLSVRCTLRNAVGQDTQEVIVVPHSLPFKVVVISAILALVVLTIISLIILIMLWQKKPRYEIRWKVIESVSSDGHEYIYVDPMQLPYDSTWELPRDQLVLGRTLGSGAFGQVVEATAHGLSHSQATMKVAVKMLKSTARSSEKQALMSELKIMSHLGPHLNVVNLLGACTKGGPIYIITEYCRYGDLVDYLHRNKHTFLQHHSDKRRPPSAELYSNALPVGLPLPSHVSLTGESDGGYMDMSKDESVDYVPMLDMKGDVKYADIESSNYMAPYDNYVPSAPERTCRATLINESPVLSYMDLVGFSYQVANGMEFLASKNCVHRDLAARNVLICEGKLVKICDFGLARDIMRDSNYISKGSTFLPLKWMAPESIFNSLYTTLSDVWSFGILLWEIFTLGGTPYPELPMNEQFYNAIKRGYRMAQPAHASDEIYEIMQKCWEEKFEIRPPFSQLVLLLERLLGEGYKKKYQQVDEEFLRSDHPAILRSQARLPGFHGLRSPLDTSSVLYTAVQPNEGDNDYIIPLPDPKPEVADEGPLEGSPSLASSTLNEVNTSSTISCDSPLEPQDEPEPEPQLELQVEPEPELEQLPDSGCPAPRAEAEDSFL
# Summary of the method: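 Read-out is in-cell phospho-PDGFRβ/total-ERK infrared immunofluorescence in HS27 fibroblasts. Cells got 1 h compound exposure before a 10 min PDGF-BB challenge. A 4-parameter logistic fit gave IC50 as the concentration yielding 50 percent of control.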
# c-KIT = target: T3, c-KIT (Homo sapiens, UniProt P10721); experiment: c-KIT Cell-Based Assay (Example D); conditions: averaged IC50; phospho-c-KIT in M-07e cells stimulated with 150 ng/ml recombinant human SCF; read-out: cKIT Cell ELISA IC50
# T3 construct: M-07e cells (human acute megakaryoblastic leukemia cell line) were serum-starved for 4 hours; endogenous in cells; host or cells: M-07e cells (human acute megakaryoblastic leukemia cell line)
# T3 sequence (P10721 26-976): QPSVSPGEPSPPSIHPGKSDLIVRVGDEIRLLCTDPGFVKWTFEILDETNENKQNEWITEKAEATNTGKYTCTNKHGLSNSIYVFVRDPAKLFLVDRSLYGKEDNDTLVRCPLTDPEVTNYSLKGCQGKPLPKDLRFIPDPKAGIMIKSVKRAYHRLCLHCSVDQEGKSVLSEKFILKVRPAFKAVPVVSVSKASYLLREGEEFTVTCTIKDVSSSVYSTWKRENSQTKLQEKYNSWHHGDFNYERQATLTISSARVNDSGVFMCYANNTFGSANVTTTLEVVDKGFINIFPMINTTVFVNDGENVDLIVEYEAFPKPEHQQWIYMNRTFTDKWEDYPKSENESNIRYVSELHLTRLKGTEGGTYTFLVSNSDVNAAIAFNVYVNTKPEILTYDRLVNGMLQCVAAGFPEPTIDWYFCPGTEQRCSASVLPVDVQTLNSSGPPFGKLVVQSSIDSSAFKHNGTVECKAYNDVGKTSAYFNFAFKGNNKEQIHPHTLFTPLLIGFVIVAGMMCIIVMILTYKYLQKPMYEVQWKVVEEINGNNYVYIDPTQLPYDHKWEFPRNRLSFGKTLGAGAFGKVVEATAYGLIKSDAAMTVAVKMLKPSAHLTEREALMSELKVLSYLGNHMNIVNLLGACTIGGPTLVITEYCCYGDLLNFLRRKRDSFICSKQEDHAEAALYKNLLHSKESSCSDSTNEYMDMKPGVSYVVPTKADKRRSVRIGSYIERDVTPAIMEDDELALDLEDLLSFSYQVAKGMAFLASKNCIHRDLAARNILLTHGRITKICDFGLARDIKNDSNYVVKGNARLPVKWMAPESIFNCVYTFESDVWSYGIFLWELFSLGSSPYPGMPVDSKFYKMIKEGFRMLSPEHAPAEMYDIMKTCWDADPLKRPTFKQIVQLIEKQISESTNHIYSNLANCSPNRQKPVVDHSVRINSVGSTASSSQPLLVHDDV
# Summary of the method: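 Phospho-c-KIT ELISA readout, calibrated with purified phospho-SCF R, gave IC50 (4-parameter fit, 50% of control). Before lysis, M-07e cells were starved 4 h, exposed 1 h to a 9-point 3-fold series (highest usually 5,000 nM), and stimulated with 150 ng/ml SCF for 4 min.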
IC50 (cFMS),IC50 (PDGFR beta),IC50 (c-KIT),SMILES
24.6 nM,9.3 nM,8.7 nM,"COCCOc1ccn2c(C(=O)Nc3cccc4c3cnn4Cc3ccc(OC)cc3)cnc2c1 [Example 114, N-(1-(4-methoxybenzyl)-1H-indazol-4-yl)-7-(2-methoxyethoxy)imidazo[1,2-a]pyridine-3-carboxamide]"
24.1 nM,6.8 nM,13.4 nM,"COCCOc1ccn2c(C(=O)Nc3cccc4c3cnn4CC3CCCCC3)cnc2c1 [Example 115, N-(1-(cyclohexylmethyl)-1H-indazol-4-yl)-7-(2-methoxyethoxy)imidazo[1,2-a]pyridine-3-carboxamide]"
185 nM,54 nM,192 nM,"COCCOc1ccn2c(C(=O)Nc3cccc4c3cnn4CC3CCCN(C(=O)OC(C)(C)C)C3)cnc2c1 (stereo not drawn) [Example 116, tert-butyl 3-((4-(7-(2-methoxyethoxy)imidazo[1,2-a]pyridine-3-carboxamido)-1H-indazol-1-yl)methyl)piperidine-1-carboxylate]"
310 nM,178 nM,581 nM,"COCCOc1ccn2c(C(=O)Nc3cccc4c3cnn4Cc3cccnc3C)cnc2c1 [Example 118, 7-(2-methoxyethoxy)-N-(1-((2-methylpyridin-3-yl)methyl)-1H-indazol-4-yl)imidazo[1,2-a]pyridine-3-carboxamide]"
26.3 nM,17.4 nM,23 nM,"COCCOc1ccn2c(C(=O)Nc3cccc4c3cnn4Cc3cccc(OCc4ccccc4)c3)cnc2c1 [Example 119, N-(1-(3-(benzyloxy)benzyl)-1H-indazol-4-yl)-7-(2-methoxyethoxy)imidazo[1,2-a]pyridine-3-carboxamide]"
34.4 nM,7.7 nM,14.5 nM,"COCCOc1ccn2c(C(=O)Nc3cccc4c3cnn4Cc3ccc(C(F)(F)F)cc3)cnc2c1 [Example 120, 7-(2-methoxyethoxy)-N-(1-(4-(trifluoromethyl)benzyl)-1H-indazol-4-yl)imidazo[1,2-a]pyridine-3-carboxamide]"
20.9 nM,13.3 nM,73.1 nM,"COCCOc1ccn2c(C(=O)Nc3cccc4c3cnn4Cc3cccnc3)cnc2c1 [Example 121, 7-(2-methoxyethoxy)-N-(1-(pyridin-3-ylmethyl)-1H-indazol-4-yl)imidazo[1,2-a]pyridine-3-carboxamide]"
131 nM,49.5 nM,60.9 nM,"COCCOc1ccn2c(C(=O)Nc3cccc4c3cnn4CC3CCN(C(=O)OC(C)(C)C)CC3)cnc2c1 [Example 122, tert-butyl 4-((4-(7-(2-methoxyethoxy)imidazo[1,2-a]pyridine-3-carboxamido)-1H-indazol-1-yl)methyl)piperidine-1-carboxylate]"
8.3 nM,6.9 nM,9.5 nM,"COCCOc1ccn2c(C(=O)Nc3cccc4c3cnn4Cc3ccc(C)nc3)cnc2c1 [Example 124, 7-(2-methoxyethoxy)-N-(1-((6-methylpyridin-3-yl)methyl)-1H-indazol-4-yl)imidazo[1,2-a]pyridine-3-carboxamide]"
12.5 nM,2.1 nM,19.8 nM,"COc1ccn2c(C(=O)Nc3cccc4c3cnn4Cc3ccccc3)cnc2c1 [Example 125, N-(1-benzyl-1H-indazol-4-yl)-7-methoxyimidazo[1,2-a]pyridine-3-carboxamide]"
27.4 nM,34.5 nM,22.2 nM,"O=C(Nc1cccc2c1cnn2Cc1ccccc1)c1cnc2ccccn12 [Example 126, N-(1-benzyl-1H-indazol-4-yl)imidazo[1,2-a]pyridine-3-carboxamide]"
14.9 nM,1.7 nM,67.8 nM,"CCOc1ccn2c(C(=O)Nc3cccc4c3cnn4Cc3ccccc3)cnc2c1 [Example 127, N-(1-benzyl-1H-indazol-4-yl)-7-ethoxyimidazo[1,2-a]pyridine-3-carboxamide]"
80 nM,117 nM,124 nM,"O=C(Nc1cccc2c1cnn2Cc1ccccn1)c1cnc2ccccn12 [Example 129, N-(1-(pyridin-2-ylmethyl)-1H-indazol-4-yl)imidazo[1,2-a]pyridine-3-carboxamide]"
993 nM,682 nM,5000 nM,"COCCOc1ccn2c(C(=O)Nc3cccc4c3cnn4CC3CCCNC3)cnc2c1 (stereo not drawn) [Example 131, 7-(2-methoxyethoxy)-N-(1-(piperidin-3-ylmethyl)-1H-indazol-4-yl)imidazo[1,2-a]pyridine-3-carboxamide hydrochloride]"
134 nM,170 nM,604 nM,"COCCOc1ccn2c(C(=O)Nc3cccc4c3cnn4CC3CCCN(C(C)=O)C3)cnc2c1 (stereo not drawn) [Example 132, N-(1-((1-acetylpiperidin-3-yl)methyl)-1H-indazol-4-yl)-7-(2-methoxyethoxy)imidazo[1,2-a]pyridine-3-carboxamide]"
3.1 nM,2.4 nM,11 nM,"COCCOc1ccn2c(C(=O)Nc3c(Br)ccc4c3cnn4Cc3ccccc3)cnc2c1 [Example 134, N-(1-Benzyl-5-bromo-1H-indazol-4-yl)-7-(2-methoxyethoxy)imidazo[1,2-a]pyridine-3-carboxamide]"
228 nM,362 nM,396 nM,"COCCOc1ccn2c(C(=O)Nc3ccc(Cl)c4c3cnn4Cc3ccccc3)cnc2c1 [Example 135, N-(1-benzyl-7-chloro-1H-indazol-4-yl)-7-(2-methoxyethoxy)imidazo[1,2-a]pyridine-3-carboxamide]"
20.7 nM,1000 nM,54.1 nM,"COCCOc1ccn2c(C(=O)Nc3c(Cl)cc(Cl)c4c3cnn4Cc3ccccc3)cnc2c1 [Example 136, N-(1-benzyl-5,7-dichloro-1H-indazol-4-yl)-7-(2-methoxyethoxy)imidazo[1,2-a]pyridine-3-carboxamide]"
3.1 nM,2 nM,3.1 nM,"COCCOc1ccn2c(C(=O)Nc3c(Cl)ccc4c3cnn4Cc3ccccc3)cnc2c1 [Example 137, N-(1-benzyl-5-chloro-1H-indazol-4-yl)-7-(2-methoxyethoxy)imidazo[1,2-a]pyridine-3-carboxamide]"
8.5 nM,1.9 nM,3.9 nM,"CC(C)c1cccc(Cn2ncc3c(NC(=O)c4cnc5cc(OCCN6CCN(C)CC6)ccn45)cccc32)n1 [Example 138, N-(1-((6-isopropylpyridin-2-yl)methyl)-1H-indazol-4-yl)-7-(2-(4-methylpiperazin-1-yl)ethoxy)imidazo[1,2-a]pyridine-3-carboxamide]"
10.6 nM,1.3 nM,7.9 nM,"Cc1cc(Cn2ncc3c(NC(=O)c4cnc5cc(OCCN6CCN(C)CC6)ccn45)cccc32)nn1C(C)C [Example 139, N-(1-((1-isopropyl-5-methyl-1H-pyrazol-3-yl)methyl)-1H-indazol-4-yl)-7-(2-(4-methylpiperazin-1-yl)ethoxy)imidazo[1,2-a]pyridine-3-carboxamide]"
3.1 nM,2.5 nM,4.8 nM,"COCCOc1ccn2c(C(=O)Nc3cccc4c3cnn4Cc3cccc(OC)c3)cnc2c1 [Example 140, N-(1-(3-methoxybenzyl)-1H-indazol-4-yl)-7-(2-methoxyethoxy)imidazo[1,2-a]pyridine-3-carboxamide]"
4.4 nM,1.6 nM,3.7 nM,"COCCOc1ccn2c(C(=O)Nc3cccc4c3cnn4Cc3cccc(Cl)c3)cnc2c1 [Example 141, N-(1-(3-chlorobenzyl)-1H-indazol-4-yl)-7-(2-methoxyethoxy)imidazo[1,2-a]pyridine-3-carboxamide]"
6.9 nM,14.2 nM,6.1 nM,"COCCOc1ccn2c(C(=O)Nc3cccc4c3cnn4Cc3cccc(C)n3)cnc2c1 [Example 142, 7-(2-methoxyethoxy)-N-(1-((6-methylpyridin-2-yl)methyl)-1H-indazol-4-yl)imidazo[1,2-a]pyridine-3-carboxamide]"
4.8 nM,12 nM,58.9 nM,"COCCOc1ccn2c(C(=O)Nc3cccc4c3cnn4Cc3cccc(C)c3)cnc2c1 [Example 143, 7-(2-methoxyethoxy)-N-(1-(3-methylbenzyl)-1H-indazol-4-yl)imidazo[1,2-a]pyridine-3-carboxamide]"
20.5 nM,13 nM,55.9 nM,"O=C(Nc1cccc2c1cnn2Cc1ccccc1)c1cnc2cc(-c3cn[nH]c3)ccn12 [Example 145, N-(1-benzyl-1H-indazol-4-yl)-7-(1H-pyrazol-4-yl)imidazo[1,2-a]pyridine-3-carboxamide]"
58.2 nM,109 nM,36.9 nM,"CC(=O)c1ccn2c(C(=O)Nc3cccc4c3cnn4Cc3ccccc3)cnc2c1 [Example 146, 7-acetyl-N-(1-benzyl-1H-indazol-4-yl)imidazo[1,2-a]pyridine-3-carboxamide]"
